Patent US8962621B2 (Shanghai Institute of Pharmaceutical Industry, priority 2010, dated 2015)

How the values were obtained:
[1] = tested on: male Kunming mice; assay: Mice forced swimming test; assay type: in vivo
Experimental: Through intragastric administration, 10 mL·kg^−1 of each sample (physiological saline for the blank control group) is administrated. The mice are pre-screened for swimming one day before the actual test. The mouse is placed into water (25° C., 10 cm deep) in a glass tank (height 20 cm, diameter 14 cm) and forced to swim for 6 min. Those who stop swimming at around 70-160 s are chosen for the actual test which starts 24 h later. After 1 h of the administration, the forced swimming test is performed by placing the animal into the above-mentioned environment to swim for 6 min. The accumulative immobility time for the last 4 min is recorded. Data is statistically analyzed with t-test.

[2] = tested on: 5-HT reuptake; assay: 5-Hydroxytryptophan (DL-5-HTP) potentiation in mice (head twitches); assay type: in vivo; settings: for Frequency of head twitches 0 (number of mice) / Frequency of head twitches I (number of mice) / Frequency of head twitches II (number of mice) / Frequency of head twitches III (number of mice): Pargyline 75 mg/kg s.c., DL-5-HTP i.v.
From the text: (§1) Tests of the 5-hydroxytryptophan (DL-5-HTP) potentiation in mice, Yohimbine toxicity enhancement in mice and oxidation tremors can verify a compound's inhibition effect on 5-HT, NA and DA reuptake. Compound VI-2 is selected for the tests.
a) Principles • Taking DL-5-HTP as the precursor of 5-HT, the MAOs inhibitor Pargyline can inhibit the enzymatic degradation […]. While in mice, characteristic symptoms—head twitches can be observed.
b) Test Method • Three different dosages of VI-2 are used: 30, 15 and 7.5 mg/kg. The mouse is treated as follows: first, intraperitoneal injection of the compound, 0.2 mL/10 g; 30 min later, subcutaneous injection of Pargyline, 75 mg/kg; and 90 min later, intraveneous injection of DL-5-HTP. The induced head twitches of the mouse are observed 15 min later.

[3] = tested on: DA reuptake; assay: Oxidation tremor test (oxotremorine-induced tremors); assay type: in vivo, mice
From the text: as §1
a) Principles • The pathogenesis of paralysis agitans is primarily related to the imbalance between DA function and Ach function. […] If the same function can be exerted in vivo, VI-2 will be able to partially antagonize the symptoms induced by an M receptor agonist.
b) Test Method • This test consists of 6 experimental groups: Model control group, VI-2-1 (300 mg/kg) group, VI-2-2 (200 mg/kg) group, VI-2-3 (120 mg/kg) group, VI-2-4 (60 mg/kg) group and VI-2-5 (30 mg/kg) group. For each VI-2 group, the compound at the corresponding dosage is administrated orally, or as in the case of the Model control group, N.S is given to the animals. One hour after the treatment, oxotremorine (0.5 mg/kg, 0.1 mL/10 g) is administrated by intraperitoneal injection to the mice in all groups. Responses of the mice are observed.

CN(C)CCC(c1ccc(Cl)c(Cl)c1)N1CCCC1 (centres unmarked) [VI-2, N,N-dimethyl-3-(3,4-dichlorophenyl)-3-(pyrrolidin-1-yl)-propylamine]
effect in the forced swimming test (in words) ([1]; 20 mg/kg): significant reduction in the immobility time
IT (sec), immobility time ([1]; 20.0 mg/kg single intragastric administration, 1 h before test, last 4 min of 6 min, n=12): 74.9 ± 37.8 s
Frequency of head twitches 0 (number of mice) ([2]; 7.5 mg/kg intraperitoneal): 1
Frequency of head twitches I (number of mice) ([2]; 7.5 mg/kg intraperitoneal): 3
Frequency of head twitches II (number of mice) ([2]; 7.5 mg/kg intraperitoneal): 6
Frequency of head twitches III (number of mice) ([2]; 7.5 mg/kg intraperitoneal): 0
Frequency of head twitches 0 (number of mice) ([2]; 15 mg/kg intraperitoneal): 0
Frequency of head twitches I (number of mice) ([2]; 15 mg/kg intraperitoneal): 0
Frequency of head twitches II (number of mice) ([2]; 15 mg/kg intraperitoneal): 4
Frequency of head twitches III (number of mice) ([2]; 15 mg/kg intraperitoneal): 6
Frequency of head twitches 0 (number of mice) ([2]; 30 mg/kg intraperitoneal): 0
Frequency of head twitches I (number of mice) ([2]; 30 mg/kg intraperitoneal): 0
Frequency of head twitches II (number of mice) ([2]; 30 mg/kg intraperitoneal): 0
Frequency of head twitches III (number of mice) ([2]; 30 mg/kg intraperitoneal): 10
enhancement of the effect of 5-HTP (in words) ([2]; 30, 15 and 7.5 mg/kg, significant dose-effect relationship): significantly enhance the effect of 5-HTP
anti-tremor effect (in words) ([3]; 30 mg/kg oral, oxotremorine 0.5 mg/kg i.p. 1 h later): No anti-tremor effect is observed
Side overturn (in words) ([3]; 120 mg/kg or lower): rarely observed
Side overturn (in words) ([3]; 300 mg/kg and 200 mg/kg oral): Side overturn of different extent is observed
Activity of the mice (in words) ([3]; 300→200→120→60→30 mg/kg = Model): The best activity of the mice is observed in the 300 mg/kg group
intensity of tremors versus dose (in words) ([3]; Model→30→60→120→200→300 mg/kg from high to low): Clear dose-effect relationship is observed
antagonism of the tremor symptom (in words) ([3]; by enhancing the function of DA): can partially antagonize the tremor symptom
doses giving improvement of tremor (in words) ([3]; oral 30-300 mg/kg, oxotremorine 0.5 mg/kg i.p.): An improvement is only observed at doses up to 120 mg/kg
enhancement of DA function at therapeutic doses (in words) ([3]; therapeutic doses (10-20 mg/kg)): no such enhancement
